Results published in ChEMBL document CHEMBL1153855, “Discovery of a new family of bis-8-hydroxyquinoline substituted benzylamines with pro-apoptotic activity in cancer cells: synthesis, structure-activity relationship, and action mechanism studies” (2009).
Calls of active or inactive are those of the source. The rule behind the calls is not given here.

What was measured:
[1] = Cytotoxicity against human KB-3-1 cells after 72 hrs by MTS assay; assay type: functional; details: KB 3-1, 72 h
MCF7 [2] = assay: Cytotoxicity against multidrug-resistant human MCF7 cells expressing P-gp; assay type: functional
HL-60 [3] = assay: Induction of apoptosis in human HL60 cells assessed as activation of caspase 9 at 1 uM; assay type: functional, cell-based
HL-60 [4] = assay: Induction of apoptosis in human HL60 cells assessed as activation of caspase 3/7 at 1 uM; assay type: functional, cell-based
SK-OV-3 = assay: Cytotoxicity against human SKOV3 cells; assay type: functional
Ovis aries [5] = species: Ovis aries; assay: Inhibition of lamb brain microtubule disassembly at 4 deg C
HL-60 [6] = assay: Induction of apoptosis in human HL60 cells assessed as activation of caspase 3/7 at 0.01 uM; assay type: functional, cell-based
Ovis aries [7] = species: Ovis aries; assay: Inhibition of lamb brain tubulin assembly at 37 deg C
HL-60 [8] = assay: Induction of apoptosis in human HL60 cells assessed as activation of caspase 8 at 1 uM; assay type: functional, cell-based
K562 = assay: Cytotoxicity against human K562 cells; assay type: functional
HL-60 [9] = assay: Cytotoxicity against human HL60 cells; assay type: functional
HL-60 [10] = assay: Induction of apoptosis in human HL60 cells assessed as activation of caspase 3/7 at 0.1 uM; assay type: functional, cell-based
SF-268 = assay: Cytotoxicity against human SF268 cells; assay type: functional
MCF7 [11] = assay: Cytotoxicity against human MCF7 cells; assay type: functional
HCT-116 = assay: Cytotoxicity against human HCT116 cells; assay type: functional
A549 = assay: Cytotoxicity against human A549 cells; assay type: functional
HCT-15 = assay: Cytotoxicity against human HCT15 cells expressing P-gp; assay type: functional
HL-60 [12] = assay: Antiproliferative activity against human HL60 cells at 10 uM after 24 hrs by trypan blue exclusion assay in absence of CuCl2; assay type: functional, cell-based
HL-60 [13] = assay: Antiproliferative activity against human HL60 cells at 10 uM after 24 hrs by trypan blue exclusion assay in presence of CuCl2; assay type: functional, cell-based
HepG2 = assay: Cytotoxicity against human HepG2 cells; assay type: functional
HL-60 [14] = assay: Induction of apoptosis in human HL60 cells assessed as activation of caspase 3/7; assay type: functional, cell-based
[15] = Inhibition of trypsin-like activity in proteasome; assay type: subcellular
[16] = Inhibition of chymotrypsin-like activity in proteasome; assay type: subcellular
PC-3 = assay: Cytotoxicity against human PC3 cells; assay type: functional
[17] = Cytotoxicity against human KB3 cells; assay type: functional
HL-60 [18] = assay: Induction of apoptosis in human HL60 cells assessed as PARP cleavage at 10 uM after 24 hrs by Western blot; assay type: functional, cell-based

Molecule Cc1ccc([C@H](C)N(Cc2ccc(O)c3ncccc23)C(=O)OC(C)(C)C)cc1 has a CC50 [1] greater than 1 µM.

With Oc1ccc(CN(Cc2ccc(C(F)(F)F)cc2)Cc2ccc(O)c3ncccc23)c2cccnc12 the CC50 (MCF7 [2]) was 0.0047 µM, the Activity (HL-60 [3]) was “inactive” and the Activity (HL-60 [4]) was “Active”. The CC50 (SK-OV-3) was 0.003 µM, the CC50 [1] was 0.0013 µM and the Activity (Ovis aries [5]) was “Active”. For the same molecule, the Activity (HL-60 [6]) was “inactive”, the Activity (Ovis aries [7]) was “inactive” and the Activity (HL-60 [8]) was “inactive”. The CC50 (K562) was 0.0052 µM, the CC50 (HL-60 [9]) was 0.0109 µM and the Activity (HL-60 [10]) was “Active”. The CC50 (SF-268) was 0.091 µM, the CC50 (MCF7 [11]) was 0.0012 µM and the CC50 (HCT-116) was 0.001 µM. The CC50 (A549) was 0.0009 µM, the CC50 (HCT-15) was 0.0008 µM and the Activity (HL-60 [12]) was “inactive”. The Activity (HL-60 [13]) was “Active”, the CC50 (HepG2) was 0.0228 µM and the Activity (HL-60 [14]) was “Dose-dependent effect”. The Activity [15] was “inactive”, the Activity [16] was “inactive” and the CC50 (PC-3) was 0.206 µM. The CC50 [17] was 0.0015 µM and the Activity (HL-60 [18]) was “inactive”.

Work on Cc1ccc(CNCc2ccc(O)c3ncccc23)cc1 yielded a CC50 [1] greater than 10 µM.

Work on CC(=O)O[C@H]1C(=O)[C@@]2(C)[C@H]([C@H](OC(=O)c3ccccc3)[C@]3(O)C[C@H](OC(=O)[C@H](O)[C@@H](NC(=O)c4ccccc4)c4ccccc4)C(C)=C1C3(C)C)[C@]1(OC(C)=O)CO[C@@H]1C[C@@H]2O [PACLITAXEL] yielded a CC50 [17] of 0.0001 µM.

Work on Oc1ccc(CN(Cc2ccccc2C(F)(F)F)Cc2ccc(O)c3ncccc23)c2cccnc12 yielded a CC50 [1] of 0.123 µM.

For CC(C)(C)OC(=O)N(Cc1ccc(C(F)(F)F)cc1)Cc1ccc(O)c2ncccc12, the CC50 [1] was 10 µM.

With Cc1ccc(CN(Cc2ccc(O)c3ncccc23)Cc2ccc(O)c3ncccc23)cc1 the CC50 (MCF7 [2]) was 0.0373 µM, the Activity (HL-60 [3]) was “inactive” and the Activity (HL-60 [4]) was “Active”. For the same molecule, the CC50 (SK-OV-3) was 0.008 µM, the CC50 [1] was 0.0026 µM and the Activity (HL-60 [6]) was “inactive”. For the same molecule, the Activity (HL-60 [8]) was “inactive”, the CC50 (K562) was 0.0408 µM and the CC50 (HL-60 [9]) was 0.0327 µM. For the same molecule, the Activity (HL-60 [10]) was “Active”, the CC50 (SF-268) was 0.178 µM and the CC50 (MCF7 [11]) was 0.0054 µM. The CC50 (HCT-116) was 0.0032 µM, the CC50 (A549) was 0.0043 µM and the CC50 (HCT-15) was 0.006 µM. For the same molecule, the Activity (HL-60 [12]) was “inactive”, the Activity (HL-60 [13]) was “Active” and the CC50 (HepG2) was 0.0521 µM. The Activity (HL-60 [14]) was “Dose-dependent effect”, the Activity [15] was “inactive” and the Activity [16] was “inactive”. The CC50 (PC-3) was 0.343 µM, the CC50 [17] was 0.0085 µM and the Activity (HL-60 [18]) was “inactive”.

In the case of Oc1ccc(CN(Cc2cccc3ccccc23)Cc2ccc(O)c3ncccc23)c2cccnc12, the CC50 [1] is reported as 0.005 µM.

Work on Cc1ccc([C@H](C)NCc2ccc(O)c3ncccc23)cc1 yielded a CC50 [1] greater than 1 µM.

Work on CC(C)(C)OC(=O)N(Cc1ccccc1C(F)(F)F)Cc1ccc(O)c2ncccc12 yielded a CC50 [1] of 1 µM.

In the case of Oc1ccc(CNCc2ccccc2)c2cccnc12, the CC50 [1] is reported as greater than 1 µM.

For Oc1ccc(CNCc2cccc3ccccc23)c2cccnc12, the CC50 [1] was greater than 1 µM.

With Oc1ccc(CNCc2ccccc2C(F)(F)F)c2cccnc12 the CC50 [1] was 0.2 µM.

In the case of O=[N+]([O-])c1ccc(CN(Cc2ccc(O)c3ncccc23)Cc2ccc(O)c3ncccc23)cc1, the CC50 [1] is reported as 0.042 µM.

With Oc1c(I)cc(Cl)c2cccnc12 the Activity (HL-60 [12]) was “inactive”.

For CC(=O)O[C@@]12CO[C@@H]1C[C@H](O)[C@@]1(C)C(=O)[C@H](O)C3=C(C)[C@@H](OC(=O)[C@H](O)[C@@H](NC(=O)OC(C)(C)C)c4ccccc4)C[C@@](O)([C@@H](OC(=O)c4ccccc4)[C@H]21)C3(C)C [DOCETAXEL], the CC50 [1] was 0.00025 µM.

Cc1ccc([C@H](C)N(Cc2ccc(O)c3ncccc23)Cc2ccc(O)c3ncccc23)cc1 gave a CC50 [1] of 0.041 µM.

For Oc1ccc(CNCc2ccc(C(F)(F)F)cc2)c2cccnc12, the CC50 [1] was 10 µM.

Oc1ccc(CN(Cc2ccccc2)Cc2ccc(O)c3ncccc23)c2cccnc12 showed a CC50 [1] of 0.015 µM.
